Measurements from patent publication US4485109A, “4-Aryl-4-piperidinecarbinols” (E. I. Du Pont de Nemours and Company, priority 1983, dated 1984).
Read-outs that look alike come from different tables or passages of the source.

Assays:
[1] = Anorexia test from CNS screen (milk consumption in fasted mice); assay type: in vivo; conditions: fasted female mice, oral, 0.5 h after dosing, 30 min milk access; ED50 estimated from quantal responses
Method: Female mice weighing 16-20 grams and fasted overnight for 17-21 h are used in these studies. At 0.5 h after administration of graded oral doses of compound prepared in aqueous Methocel® (methylcellulose, viscosity 100 CPS, grade MC, Dow Chemical Co.) and 2.8% Tween 80 and dosed at 0.1 mL per 10 grams of body weight, each mouse is transferred to an individual, clear, Lucite® compartment (13.3 cm×12.7 cm×12.7 cm) with a 0.64 cm×0.64 cm wire mesh floor. Five compartments are linearly arranged in each cage unit. Inside each compartment is a section of a black Lucite® bar (13 cm×1.2 cm×1.2 cm), in the top of which are ten spot depressions (0.8 cm diameter), each containing 0.05 mL of 50% sweetened condensed milk (Borden's Eagle Brand). 30 Minutes later the mice are returned to the "shoe-box" containers and the number of milk spots consumed by each mouse is counted. Fractions of spots consumed are also estimated and counted. Five mice […] per drug dose can drink a maximum of 50 spots (2.5 mL of milk). Nine or fewer spots consumed by 5 mice is considered to indicate anorexia. ED50 values are estimated based on the quantal responses obtained.

[2] = system: tetrabenazine-induced depression; assay: Antagonism (prevention) of tetrabenazine-induced sedation and depression in mice, orally; assay type: in vivo, mice (Carworth CF1 S female); conditions: tetrabenazine 32 mg/kg i.p. 30 min after compound; for ED50: Mus musculus, 1 h
Text: A standard procedure for detecting and comparing the antidepressant activity of the compounds of this invention, for which there is good correlation with human efficacy, is the prevention of tetrabenazine-induced sedation and depression in mice. (Everett, "The Dopa Response Potentiation Test and Its Use in Screening for Antidepressant Drugs", pp. 164-167 in Antidepressant Drugs [Proceedings of the First International Symposium], S. Garattini and M. N. G. Dukes (editors), 1967).
Groups of 10 Carworth CF1 S female mice, 18-21 g each, each fasted 1.5 h and were intubated with antagonist compounds at oral doses, such as 0, 1, 3, 9, 27 and 81 mg/kg in 0.20 mL of 1% Methocel® (methylcellulose).The mice were challenged 30 minutes later with tetrabenazine (as the methanesulfonate), 32 mg/kg intraperitoneally (dissolved in 0.20 mL 0.05% aqueous KCl at pH 2.0). One hour after administration of antagonist (30 minutes after administration of tetrabenazine) the mice were examined for signs of exploratory activity and ptosis (eye lid closure). Normal exploratory activity (relief from sedation) was recorded when a mouse, lifted by the tail from a group of 10 in a testing box and placed on a stainless steel testing box lid (12.5 inch (31.8 cm) by 8 inch (20.3 cm) with 0.33 inch mesh), either turned its head horizontally 30° in both directions or moved to the edge of the screen within 10 seconds after being placed on the screen. Relief from ptosis was recorded when, at exactly two seconds after placing the mouse facing the observer, lid closure was less than 50% in both eyes.

[3] = mice, oral, at one hour post-drug, 60 min
[4] = po, read-out: ORAL ED50 for prevention of exploratory loss, mice, oral, at one hour post-drug
[5] = po, read-out: ORAL ED50 for prevention of ptosis, mice, oral, at one hour post-drug

Compound	ED50 [2, 4]	ED50 [2, 5]	also measured
CN1CCC(c2cccc(C(F)(F)F)c2)(C(C)(C)O)CC1 [Example 2A, 4-(3'-Trifluoromethylphenyl)-α,α,1-trimethyl-4-piperidinemethanol]	–	–	ED50 for anorexia [1]: 36 mg/kg; ORAL ED50 for prevention of exploratory loss [2, 3]: 0.01 mg/kg; ORAL ED50 for prevention of ptosis [2, 3]: 0.014 mg/kg
COc1cccc(C2(C3(O)CCCCCC3)CCN(C)CC2)c1 [Example 27, 1-[1'-Methyl-4'-(3"-methoxyphenyl)-4'-piperidinyl]cycloheptanol]	1.4 mg/kg	0.9 mg/kg	–
COc1cccc(C2(C(C)(C)O)CCN(C)CC2)c1OC [Example 20, 4-(2',3'-Dimethoxyphenyl)-α,α,1-trimethyl-4-piperidinemethanol]	4.6 mg/kg	2.1 mg/kg	–
Cc1ccc(C2(C(C)(C)O)CCN(C)CC2)s1 [Example 25, 4-(5'-Methyl-2'-thienyl)-α,α,1-trimethyl-4-piperidinemethanol]	0.99 mg/kg	0.69 mg/kg	–
CN1CCC(c2cccn2C)(C(C)(C)O)CC1 [Example 24, 4-(1'-Methyl-2'-pyrrolyl)-α,α,1-trimethyl-4-piperidinemethanol]	1.2 mg/kg	0.78 mg/kg	–
COc1ccc(OC)c(C2(C(C)(C)O)CCN(C)CC2)c1 [Example 29, 4-(2',5'-Dimethoxyphenyl)-α,α,1-trimethyl-4-piperidinemethanol]	0.99 mg/kg	0.86 mg/kg	–
Cc1cccc(C2(C(C)(C)O)CCN(C)C(C)C2)c1 (stereo not drawn) [Example 44, 4-(3'-Tolyl)-α,α,1,2-tetramethyl-4-piperidinemethanol]	0.33 mg/kg	0.33 mg/kg	–
COc1cccc(C2(C3(O)CCCCC3)CCN(C)CC2)c1 [Example 35, 1[1'-Methyl-4'-(3"-methoxyphenyl)-4'-piperidine]cyclohexanol]	1.4 mg/kg	1.1 mg/kg	–
CN1CCC(c2cccc(-c3ccccc3)c2)(C(C)(C)O)CC1 [Example 36, 4-(3'-Biphenylyl)-α,α,1-trimethyl-4-piperidinemethanol]	1.1 mg/kg	0.66 mg/kg	–
COc1cccc(C2(C3(O)CCCCCCC3)CCN(C)CC2)c1 [Example 28, 1-[1'-Methyl-4'-(3"-methoxyphenyl)-4'-piperidinyl]cyclooctanol]	3.8 mg/kg	1.7 mg/kg	–
COc1cccc(C2(C3(O)CCCC3)CCN(C)CC2)c1OC [Example 3, 1-[1'-Methyl-4'-(2",3"-dimethoxyphenyl)-4'-piperidinyl]cyclopentanol]	14 mg/kg	2.8 mg/kg	–
COc1ccccc1C1(C(C)(C)O)CCN(C)CC1 [Example 15, 4-(2'-Methoxyphenyl)-α,α,1-trimethyl-4-piperidinemethanol]	2.3 mg/kg	0.57 mg/kg	–
CN1CCC(c2ccc(N(C)C)cc2)(C(C)(C)O)CC1 [Example 33, 4-(4'-Dimethylaminophenyl)-α,α,1-trimethyl-4-piperidinemethanol]	0.78 mg/kg	0.35 mg/kg	–
COc1ccc(C2(C(C)(C)O)CCN(C)CC2)cc1 [Example 19, 4-(4'-Methoxyphenyl)-α,α,1-trimethyl-4-piperidinemethanol]	1.1 mg/kg	0.33 mg/kg	–
Cc1cc(C)cc(C2(C(C)(C)O)CCN(C)CC2)c1 [Example 12, 4-(5'-m-Xylyl)-α,α,1-trimethyl-4-piperidinemethanol]	0.11 mg/kg	0.064 mg/kg	–
Cc1ccc(C2(C(C)(C)O)CCN(C)CC2)cc1C [Example 13, 4-(4'-o-Xylyl)-α,α,1-trimethyl-4-piperidinemethanol]	0.3 mg/kg	0.23 mg/kg	–
CN1CCC(c2ccc(-c3ccccc3)cc2)(C(C)(C)O)CC1 [Example 42, 4-(4'-Biphenylyl)-α,α,1-trimethyl-4-piperidinemethanol]	1.5 mg/kg	1 mg/kg	–
CN1CCC(c2ccc(F)cc2)(C(C)(C)O)CC1 [Example 5, 4-(4'-Fluorophenyl)-α,α,1-trimethyl-4-piperidinemethanol]	0.48 mg/kg	0.33 mg/kg	–

Compound	ED50 [2, 4]	ED50 [2, 5]	also measured
CC1CCC(O)(C2(c3cccc(C(F)(F)F)c3)CCN(C)CC2)C1 (racemic) [Example 46, (±)-cis and trans-3-Methyl-1-[1'-methyl-4'-(3"-trifluoromethylphenyl)-4'-piperidinyl]cyclopentanol]	< 1 mg/kg	< 1 mg/kg	–
CCOc1cccc(C2(C(C)(C)O)CCN(C)CC2)c1 [Example 40, 4-(3'-Ethoxyphenyl)-α,α,1-trimethyl-4-piperidinemethanol]	0.9 mg/kg	0.9 mg/kg	–
COc1cccc(C2(C(C)(C)O)CCN(C)CC2C)c1 (stereo not drawn) [Example 43, 4-(3'-Methoxyphenyl)-α,α,1,3-tetramethyl-4-piperidinemethanol]	7.2 mg/kg	5.8 mg/kg	–
CN1CCC(c2cccnc2)(C(C)(C)O)CC1 [Example 26, 4-(3'-Pyridyl)-α,α,1-trimethyl-4-piperidinemethanol]	29 mg/kg	18 mg/kg	–
COc1cccc(C2(C3(O)CCCC3)CCN(Cc3ccccc3)CC2)c1OC [Example 38, 1-[1'-Benzyl-4'-(2",3"-dimethoxyphenyl)-4'-piperidinyl]cyclopentanol]	> 81 mg/kg	> 81 mg/kg	–
CC1CCC(O)(C2(c3cccc(C(F)(F)F)c3)CCN(C)CC2)C1 (single isomer, unassigned; (-)) [Example 47, (-)-cis and trans-3-Methyl-1-[1'-methyl-4'-(3"-trifluoromethylphenyl)-4'-piperidinyl]cyclopentanol]	< 1 mg/kg	< 1 mg/kg	–
Cc1ccc(C2(C(C)(C)O)CCN(C)CC2)cc1 [Example 11, 4-(4'-Tolyl)-α,α,1-trimethyl-4-piperidinemethanol]	0.69 mg/kg	0.57 mg/kg	–
CN1CCC(c2ccccc2)(C(C)(C)O)CC1 [Example 1, 4-Phenyl-α,α,1-trimethyl-4-piperidinemethanol]	5.6 mg/kg	0.78 mg/kg	–
COc1cccc(C2(C(C)(C)O)CCNCC2)c1 [Example 14, 4-(3'-Methoxyphenyl)-α,α-dimethyl-4-piperidinemethanol]	4.4 mg/kg	2.7 mg/kg	–
CN(C)CCC=C1c2ccccc2CCc2ccccc21 [Amtriptyline, reference compound]	–	–	ED50 ([2]; mice, oral, at one hour post-drug, read-out: ORAL ED50 for prevention of exploratory loss): 2.7 mg/kg; ED50 ([2]; mice, oral, at one hour post-drug, read-out: ORAL ED50 for prevention of ptosis): 0.7 mg/kg
CCC(O)(CC)C1(c2cccc(OC)c2)CCN(C)CC1 [Example 18, 4-(3'-Methoxyphenyl)-α,α-diethyl-1-methyl-4-piperidinemethanol]	0.71 mg/kg	0.71 mg/kg	–
CN(C)CCCN1c2ccccc2CCc2ccccc21 [Imipramine, reference compound]	2.2 mg/kg	0.94 mg/kg	–
Cc1ccccc1C1(C(C)(C)O)CCN(C)CC1 [Example 9, 4-(2'-Tolyl)-α,α,1-trimethyl-4-piperidinemethanol]	0.48 mg/kg	0.33 mg/kg	–
COc1cccc(C2(C3(O)CCC3)CCN(C)CC2)c1 [Example 22, 1-[1'-Methyl-4'-(3"-methoxyphenyl)-4'-piperidinyl]cyclobutanol]	0.92 mg/kg	0.67 mg/kg	–
COc1cccc(C2(C3(O)CCCCC3)CCN(C)CC2)c1OC [Example 23, 1-[1'-Methyl-4'-(2",3"-dimethoxyphenyl)-4'-piperidinyl]cyclohexanol]	38 mg/kg	17 mg/kg	–
CSc1ccc(C2(C(C)(C)O)CCN(C)CC2)cc1 [Example 21, 4-(4'-Methylthiophenyl)-α,α,1-trimethyl-4-piperidinemethanol]	1.3 mg/kg	1.3 mg/kg	–
CC(C)(O)C1(c2cccc(C(F)(F)F)c2)CCN2CCCC2C1 (stereo not drawn) [Example 45, 7-(3'-Trifluoromethylphenyl)-α,α-dimethyl-7-indolizidinemethano]	< 0.33 mg/kg	0.48 mg/kg	–
COc1cccc(C2(C3(O)CCCC3)CCN(C)CC2)c1 [Example 34, 1[1'-Methyl-4'-(3"-methoxyphenyl)-4'-piperidine]cyclopentanol]	0.48 mg/kg	0.45 mg/kg	–
